From patent US20130095059A1, “INHALED NO DONOR KMUPS DERIVATIVE PREVENTING ALLERGIC PULMONARY VASCULAR AND BRONCHIAL INFLAMMATION VIA SUPPRESSED CYTOKINES, INOS AND INFLAMMATORY CELL COUNTS IN ASTHMA MODEL” (priority 2007, published 2013)

Experiments:
eNOS = assay: Protein expression (optical density %) after KMUPs salts, eNOS; assay type: cell-based; settings: 10 μM, 120 min; without treatment control 100 %
PDE-5A = assay: Protein expression (optical density %) after KMUPs salts, PDE-5A; assay type: cell-based; settings: 10 μM, 120 min; without treatment control 100 %
ROCKII = assay: Protein expression (optical density %) after KMUPs salts, ROCKII; assay type: cell-based; settings: 10 μM, 120 min; without treatment control 100 %
iNOS = assay: Ovalbumine model, iNOS expression; assay type: in vivo, BALB/c mice; settings: non-treatment allergic animal 100 %
MMP-9 [1] = assay: Ovalbumine model, MMP-9 expression, zymography and immunostaining; assay type: in vivo, BALB/c mice; settings: inhalation 5 mM; non-treatment allergic animal 100 %
Description: (§1) In this long-term experiment, 6-8 week old BALB/c female mice were sensitized on days 1 and 8 by intra-peritoneal injection (i.p.) of ovalbumine (10 μg) (Sigma-Aldrich, Schnelldorf, Germany) adsorbed to 2 mg aluminum hydroxide (AlumInject; Perbio, Erembodegem, Belgium). Mice were divided into three groups. In Group 1, a control group was only exposed to saline nebulization by aerosol. The other 2 groups were subjected to ovalbumine (1%) nebulization. Before each challenge with ovalbumine, mice were either exposed to saline nebulization (Group 2) or KMUP-1 nebulization (5 mM) for 30 min by aerosol (Group 3).
The gelatinolytic activity of MMP-9 was measured by gelatin zymography as described previously (Cataldo D D, et al., 2002). Briefly, BALF (10 μl) was subjected to electrophoresis in 10% polyacrylamide gel containing gelatin (1 mg/ml). The gel was washed in 2.5% Triton X-100 to permit re-naturation of gelatinases and stained with Coomassie blue after overnight incubation. Destaining visualized clear zones of lysis against a blue background indicated the gelatinase activity (Hibbs, M S, et al., 1985).
The lung tissues were homogenized, washed with PBS and incubated in lysis buffer in addition to a protease inhibitor cocktail (Sigma, St. Louis, Mo.) to obtain extracts of lung proteins. A Western blot analysis was performed as described previously (Wu B N, et al., 2006). The samples were loaded to 10% SDS-PAGE gels and were separated at 120 V for 90 min. The blots were incubated with anti-eNOS antibody diluted at a ratio of 1:500, anti-sGCα1 antibody diluted at a ratio of 1:2000, anti-PKG antibody diluted at a ratio of 1:500, anti-VCAM-1 antibody diluted at a ratio of 1:500, anti-ICAM-1 antibody diluted at a ratio of 1:500, and anti-MMP-9 antibody diluted at a ratio of 1:600 overnight at 4° C. The membranes were stripped and re-blotted with anti-actin antibody (Sigma, St. Louis, Mo.) to verify the equal loading of protein in each lane.
Immunohistochemical analysis of eNOS enhancement by KMUP-1 was performed as follows. The lungs were perfused with saline followed by 10% formalin and then placed in 10% formalin for paraffin embedding. The lung tissues were cut into […] sections onto slides, dewaxed in 100% xylene, and then re-hydrated in graded alcohol solutions. Throughout the procedures, slides were washed as appropriate in PBS. Antigen retrieval was performed by microwave treatment for eNOS immunostaining. Sections were treated with 3% H2O2 (10 min) to inhibit endogenous peroxidases and incubated with normal serum (60 min) to reduce nonspecific binding of secondary antibodies. Sections were then incubated at 4° C. overnight with eNOS antibodies. After washing off unbounded primary antibodies, sections were incubated with secondary biotinylated antibodies against mouse or rabbit (DAKO Co., Japan) (60 min), followed by incubation in avidin/biotin/horseradish peroxidase complex (DAKO Co., Japan) (30 min) Subsequently, peroxidase activity was visualized by incubation (3 min) with 0.05% 3,3′-diaminobenzidine (DAKO Co., Japan), which gives a brown reaction product. The reaction was stopped by washing with water. The slides were counterstained with hematoxylin. For immunostaining of MMP-9 in lung tissue, the de-paraffinized 3-5 μm sections of lung tissue was performed as above eNOS, but using MMP-9 antibody.

BALF cells [2] = assay: Ovalbumine model, bronchoalveolar lavage cell counts; assay type: in vivo, BALB/c mice; settings: inhalation 5 mM; for Neurophil: OVA 1.0 ± 0.2; for Lymphocyte / monocyte: OVA 2.4 ± 0.3; for (Table 5) / Eosinophil: OVA 37.2 ± 2.8; for Total cells: OVA 65.3 ± 3.4
Description: as §1
After the sacrifice of mice, a cannula was placed in the trachea for bronchoalveolar lavage by gentle manual aspiration, using cold PBS-EDTA (0.05 mM, 1 ml) (Calbiochem, Darmstadt, Germany) as previously described (Cataldo D D, et al., 2002). The broncho alveolar lavage fluid (BALF) was centrifuged at 4° C. for 10 min (1200 rpm). The supernatant was frozen at −80° C. for protein assessment and the cell pellet was resuspended in PBS-EDTA (0.05 mM, 1 ml). Total cell counts were performed manually using a thoma chamber. The differential cell counts were performed using morphologic criteria on cytocentrifuged preparations (Cytospin) after staining with Diff-Quick (Dade, Belgium). Differential cell counts were performed by one blinded observer unaware of the experimental treatment.

IL-5 = assay: Ovalbumine model, plasma IL-5 (ELISA); assay type: in vivo, mice; settings: OVA-sens, OVA-sens alone 43 ± 6
Description: as §1

IL-13 = assay: Ovalbumine model, plasma IL-13 (ELISA); assay type: in vivo, mice; settings: OVA-sens, OVA-sens alone 35 ± 6
Description: as §1

MMP-9 [3] = assay: Ovalbumine model, MMP-9 expression, zymography and immunostaining; assay type: in vivo, BALB/c mice; settings: oral 2.5 mg Kg^−1; non-treatment allergic animal 100 %
BALF cells [4] = assay: Ovalbumine model, bronchoalveolar lavage cell counts; assay type: in vivo, BALB/c mice; settings: oral 2.5 mg Kg^−1; for Neurophil: OVA 1.0 ± 0.2; for Lymphocyte / monocyte: OVA 2.4 ± 0.3; for (Table 5) / Eosinophil: OVA 37.2 ± 2.8; for Total cells: OVA 65.3 ± 3.4

SMILES	eNOS protein expression, optical densitivity % (eNOS) [%]	PDE-5A protein expression, optical densitivity % (PDE-5A) [%]	ROCKII protein expression, optical densitivity % (ROCKII) [%]	iNOS (iNOS; inhalation 5 mM) [%]	MMP-9 (MMP-9 [1]) [%]	Neurophil (BALF cells [2])	Lymphocyte (BALF cells [2])	monocyte (BALF cells [2])	(Table 5) (BALF cells [2])	Eosinophil (BALF cells [2])	Total cells (BALF cells [2])	iNOS (iNOS; oral 2.5 mg Kg^−1) [%]	MMP-9 (MMP-9 [3]) [%]	Neurophil (BALF cells [4])	Lymphocyte (BALF cells [4])	monocyte (BALF cells [4])	(Table 5) (BALF cells [4])	Eosinophil (BALF cells [4])	Total cells (BALF cells [4])	also measured
Cl.Cn1c(=O)c2c(ncn2CCN2CCN(c3ccccc3Cl)CC2)n(C)c1=O [KMUP-1 HCl, 7-[2-[4-(2-chlorophenyl)piperazinyl]ethyl]-1,3-dimethylxanthine HCl]	155 ± 14.8	64 ± 4.5	42 ± 6.3	55 ± 14.8	42 ± 6.3	1.0 ± 0.2 × 10^4 cell/ml	1.5 ± 0.3 × 10^4 cell/ml	1.5 ± 0.3 × 10^4 cell/ml	23.7 ± 2.8 × 10^4 cell/ml	23.7 ± 2.8 × 10^4 cell/ml	50.6 ± 2.4 × 10^4 cell/ml									IL-5 (IL-5; inhalation 5 mM): 31 ± 6 pg/mL; IL-13 (IL-13; inhalation 5 mM): 14 ± 5 pg/mL
Cn1c(=O)c2c(ncn2CCN2CCN(c3ccccc3Cl)CC2)n(C)c1=O.O=C(O)CC(O)(CC(=O)O)C(=O)O [KMUP-1-citric acid, 7-[2-[4-(2-chlorobenzene)piperazinyl]ethyl]-1,3-dimethylxanthine-Citric acid]	152 ± 13.6	66 ± 5.2	43 ± 3.8																	
Cn1c(=O)c2c(ncn2CCN2CCN(c3ccccc3Cl)CC2)n(C)c1=O.O=C(O)c1cccnc1 [KMUP-1-nicotinic acid, 7-[2-[4-(2-chlorobenzene)piperazinyl]ethyl]-1,3-dimethylxanthine-Nicotinic acid]	158 ± 12.4	62 ± 4.8	41 ± 2.5																	
COc1ccccc1N1CCN(CCn2cnc3c2c(=O)n(C)c(=O)n3C)CC1.Cl [KMUP-2 HCl, 7-[2-[4-(2-methoxybenzene)piperazinyl]ethyl]-1,3-dimethylxanthine hydrochloride]		68 ± 5.3	40 ± 3.7	47 ± 8.6	40 ± 3.7	1.0 ± 0.4 × 10^4 cell/ml	1.2 ± 3.7 × 10^4 cell/ml	1.2 ± 3.7 × 10^4 cell/ml	25 ± 2.2 × 10^4 cell/ml	25 ± 2.2 × 10^4 cell/ml	51.0 ± 0.4 × 10^4 cell/ml									IL-5 (IL-5; inhalation 5 mM): 32 ± 6 pg/mL; IL-13 (IL-13; inhalation 5 mM): 15 ± 3 pg/mL
COc1ccccc1N1CCN(CCn2cnc3c2c(=O)n(C)c(=O)n3C)CC1.O=C(O)CC(O)(CC(=O)O)C(=O)O [KMUP-2-citric acid, 7-[2-[4-(2-methoxybenzene)piperazinyl]ethyl]-1,3-dimethylxanthine-Citric acid]		71 ± 5.4	40 ± 3.7																	
Cl.Cn1c(=O)c2c(ncn2CCN2CCN(c3ccc([N+](=O)[O-])cc3)CC2)n(C)c1=O [KMUP-3 HCl, 7-[2-[4-(4-nitrobenzene)piperazinyl]ethyl]-1,3-dimethyl xanthine HCl]	148 ± 7.5	63 ± 5.2	44 ± 2.9	48 ± 7.5	44 ± 2.9	1.0 ± 0.3 × 10^4 cell/ml	1.3 ± 0.6 × 10^4 cell/ml	1.3 ± 0.6 × 10^4 cell/ml	24 ± 3.5 × 10^4 cell/ml	24 ± 3.5 × 10^4 cell/ml	52.1 ± 0.2 × 10^4 cell/ml	45 ± 7.5	43 ± 1.6	1.1 ± 0.3 × 10^4 cell/ml	1.7 ± 2.8 × 10^4 cell/ml	1.7 ± 2.8 × 10^4 cell/ml	25 ± 2.5 × 10^4 cell/ml	25 ± 2.5 × 10^4 cell/ml	51.2 ± 0.3 × 10^4 cell/ml	
Cn1c(=O)c2c(ncn2CCN2CCN(c3ccc([N+](=O)[O-])cc3)CC2)n(C)c1=O.O=C(O)c1cccnc1 [KMUP-3-nicotinic acid, 7-[2-[4-(4-nitrobenzene)piperazinyl]ethyl]-1,3-dimethylxanthine-Nicotinic acid]	145 ± 7.5	60 ± 4.1	43 ± 1.6																	
Cl.Cn1c(=O)c2c(ncn2CCN2CCN(c3ccccc3[N+](=O)[O-])CC2)n(C)c1=O [KMUP-4 HCl, 7-[2-[4-(2-nitrobenzene)piperazinyl]ethyl]-1,3-dimethylxanthine hydrochloride]	135 ± 7.5	73 ± 3.4	37 ± 2.8	35 ± 7.5	37 ± 2.8	1.1 ± 0.2 × 10^4 cell/ml	1.6 ± 3.4 × 10^4 cell/ml	1.6 ± 3.4 × 10^4 cell/ml	21 ± 6.7 × 10^4 cell/ml	21 ± 6.7 × 10^4 cell/ml	53.4 ± 0.3 × 10^4 cell/ml	31 ± 6.7	56 ± 3.4	1.1 ± 0.3 × 10^4 cell/ml	1.7 ± 1.8 × 10^4 cell/ml	1.7 ± 1.8 × 10^4 cell/ml	20 ± 3.5 × 10^4 cell/ml	20 ± 3.5 × 10^4 cell/ml	51.8 ± 0.4 × 10^4 cell/ml	
Cn1c(=O)c2c(ncn2CCN2CCN(c3ccccc3[N+](=O)[O-])CC2)n(C)c1=O.O=C(O)CC(O)(CC(=O)O)C(=O)O [KMUP-4-citric acid, 7-[2-[4-(2-nitrobenzene)piperazinyl]ethyl]-1,3-dimethylxanthine-Citric acid]	131 ± 6.7	78 ± 3.6	56 ± 3.4																	
CCC(C)(C)C(=O)O[C@H]1C[C@@H](C)C=C2C=C[C@H](C)[C@H](CC[C@@H]3C[C@@H](O)CC(=O)O3)[C@H]21 [Simvastatin, reference compound]												58 ± 12.4	41 ± 2.5	1.5 ± 0.4 × 10^4 cell/ml	1.8 ± 0.7 × 10^4 cell/ml	1.8 ± 0.7 × 10^4 cell/ml	27 ± 1.6 × 10^4 cell/ml	27 ± 1.6 × 10^4 cell/ml	52.5 ± 0.4 × 10^4 cell/ml	IL-5 (IL-5; oral 2.5 mg Kg^−1): 158 ± 12.4 pg/mL; IL-13 (IL-13; oral 2.5 mg Kg^−1): 41 ± 2.5 pg/mL
